Data published in ChEMBL document CHEMBL1143218 (Bioorg Med Chem Lett, 2008).

Columns and labels:
[1] = biological target: Sodium-dependent serotonin transporter (Homo sapiens, UniProt P31645)
[2] = biological target: Sodium-dependent dopamine transporter (Homo sapiens, UniProt Q01959)
Chain of Sodium-dependent dopamine transporter (Q01959 whole entry): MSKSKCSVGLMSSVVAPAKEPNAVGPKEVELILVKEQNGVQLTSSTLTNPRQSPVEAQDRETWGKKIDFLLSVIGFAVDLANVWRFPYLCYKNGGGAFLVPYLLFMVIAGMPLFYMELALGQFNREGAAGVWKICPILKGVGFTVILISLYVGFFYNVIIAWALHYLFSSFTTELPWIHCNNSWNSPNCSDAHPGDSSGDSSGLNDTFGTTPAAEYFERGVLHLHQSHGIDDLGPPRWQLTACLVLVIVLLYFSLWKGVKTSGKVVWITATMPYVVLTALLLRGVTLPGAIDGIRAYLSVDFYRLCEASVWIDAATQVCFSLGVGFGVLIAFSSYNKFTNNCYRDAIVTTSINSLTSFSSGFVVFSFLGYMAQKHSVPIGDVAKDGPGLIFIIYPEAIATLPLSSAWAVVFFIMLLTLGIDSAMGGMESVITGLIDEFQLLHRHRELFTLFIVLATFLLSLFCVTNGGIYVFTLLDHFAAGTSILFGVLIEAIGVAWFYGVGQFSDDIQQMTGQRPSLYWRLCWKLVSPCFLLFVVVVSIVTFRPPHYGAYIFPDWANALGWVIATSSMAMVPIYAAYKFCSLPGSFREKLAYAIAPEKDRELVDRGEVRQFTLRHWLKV

Chain of Sodium-dependent serotonin transporter (P31645 whole entry): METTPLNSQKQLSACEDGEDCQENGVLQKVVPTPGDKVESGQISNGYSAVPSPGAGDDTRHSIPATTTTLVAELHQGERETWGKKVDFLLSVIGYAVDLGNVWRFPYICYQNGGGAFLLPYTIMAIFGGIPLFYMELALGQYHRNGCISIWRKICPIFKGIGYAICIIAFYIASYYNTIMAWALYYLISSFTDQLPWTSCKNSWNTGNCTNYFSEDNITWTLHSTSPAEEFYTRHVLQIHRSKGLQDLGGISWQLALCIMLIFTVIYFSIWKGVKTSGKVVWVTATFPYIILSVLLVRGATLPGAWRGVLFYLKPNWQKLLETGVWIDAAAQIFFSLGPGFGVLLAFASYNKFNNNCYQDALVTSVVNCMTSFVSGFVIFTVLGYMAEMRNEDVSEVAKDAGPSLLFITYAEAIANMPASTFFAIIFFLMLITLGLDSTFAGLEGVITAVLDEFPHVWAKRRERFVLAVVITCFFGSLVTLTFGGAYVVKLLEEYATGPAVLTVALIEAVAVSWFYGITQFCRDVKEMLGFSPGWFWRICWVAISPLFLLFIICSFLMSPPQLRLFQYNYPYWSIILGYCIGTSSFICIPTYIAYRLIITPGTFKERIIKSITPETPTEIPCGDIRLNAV

Structure (SMILES) | IC50 [1] [µM] | IC50 [2] [µM]
CCN(CC)C(=O)C1(c2ccccc2)CC1CNCc1ccncc1 (racemic) | > 10 | > 10
CCN(CC)C(=O)C1(c2ccccc2)CC1CNCc1cccnc1 (racemic) | > 10 | > 10
CCN(CC)C(=O)C1(c2ccccc2)CC1CNCc1ccco1 (racemic) | > 10 | > 10
CCN(CC)C(=O)C1(c2ccccc2)CC1CNCc1cnco1 (racemic) | 4.8 | > 10
CCN(C(=O)C1(c2ccccc2)CC1CN)C(C)(C)C (racemic) | > 10 | > 10
CCCCNCC1CC1(C(=O)N(CC)CC)c1ccccc1 (racemic) | > 10 | > 10
CCNCC1CC1(C(=O)N(CC)CC)c1ccccc1 (racemic) | 1.3 | > 10
NCC1CC1(C(=O)Nc1ccccc1)c1ccccc1 (racemic) | > 10 | > 10
CCN(CC)C(=O)C1(c2ccccc2)CC1CNCC(C)C (racemic) | > 10 | > 10
CCN(CCOC)C(=O)C1(c2ccccc2)CC1CN (racemic) | 1.3 | > 10
CCN(C(=O)C1(c2ccccc2)CC1CN)C1CCCCC1 (racemic) | 7.5 | > 10
CCCN(CC)C(=O)C1(c2ccccc2)CC1CN (racemic) | 1.7 | > 10
CCN(C(=O)C1(c2ccccc2)CC1CN)c1ccccc1 (racemic) | 4.4 | > 10
CCN(CC)C(=O)C1(c2ccccc2)CC1CNCC1CCCC1 (racemic) | > 10 | > 10
NCC(=O)NCC1CC1(C(=O)C1NCCc2ccccc21)c1ccccc1 (racemic) | – | > 10
NCC(=O)NCC1CC1(C(=O)N1CCc2ccccc21)c1ccccc1 (racemic) | 0.077 | > 10
NCC1CC1(C(=O)N1CCCc2ccccc21)c1ccccc1 (racemic) | 0.1 | > 10
NCC1CC1(C(=O)NC1CC1)c1ccccc1 (racemic) | > 10 | > 10

Second part, the compound after the results:

IC50 [1] [µM] | IC50 [2] [µM] | Structure (SMILES)
> 10 | > 10 | CCNC(=O)[C@@]1(c2ccccc2)CC1CN (mixture of isomers)
> 10 | > 10 | CC(C)N(C(=O)[C@@]1(c2ccccc2)CC1CN)C(C)C (mixture of isomers)
– | > 10 | NCC1C[C@@]1(C(=O)N1CCCC1)c1ccccc1 (mixture of isomers)
5.4 | > 10 | CCN(CC)C(=O)[C@@]1(c2ccccc2)CC1CNC (mixture of isomers)
2.2 | > 10 | CCN(CC)C(=O)[C@@]1(c2ccccc2)C[C@H]1CNC(=O)CN (racemic)
1.7 | 7.4 | NCC1CC1(C(=O)N1CCOCC1)c1ccccc1 (racemic)
1.2 | 4.6 | NCC1CC1(C(=O)N1CCCCC1)c1ccccc1 (racemic)
1.1 | > 10 | CCN(CC)C(=O)C1(c2ccccc2)CC1CNCC(OC)OC (racemic)
2 | > 10 | CCCCN(CC)C(=O)C1(c2ccccc2)CC1CN (racemic)
1.6 | > 10 | CCN(CC)C(=O)C1(c2ccccc2)CC1CNCc1ncco1 (racemic)
0.16 | > 10 | CCN(Cc1ccccc1)C(=O)C1(c2ccccc2)CC1CN (racemic)
– | > 10 | NCC1CC1(C(=O)C1NCCc2ccccc21)c1ccccc1 (racemic)
> 10 | 4.6 | CC(C)N(C(=O)C1(c2ccccc2)CC1CNC(=O)CN)C(C)C (racemic)
0.28 | > 10 | C=CCN(CC)C(=O)C1(c2ccccc2)CC1CN (racemic)
0.013 | 3.9 | NCC1CC1(C(=O)N1CCc2ccccc21)c1ccccc1 (racemic)
3.2 | > 10 | NCC1CC1(C(=O)NCc1ccccc1)c1ccccc1 (racemic)
0.83 | 2.4 | CCN(C)C(=O)C1(c2ccccc2)CC1CN (racemic)
4.4 | > 10 | CCN(CC)C(=O)C1(c2ccccc2)CC1CNCc1ccc[nH]1 (racemic)
0.64 | > 10 | NCC1CC1(C(=O)N1CCCCCC1)c1ccccc1 (racemic)
3.5 | 6.2 | CCN(CC)C(=O)C1(c2ccccc2)CC1CNCc1ccccn1 (racemic)
> 10 | 4.5 | CCN(CC)C(=O)C1(c2ccccc2)CC1CN(C)C (racemic) [N,N-DIMETHYL MILNACIPRAN]
